What is called IC50 is the concentration that gives 50% inhibition.

Data on two substances can be found in article PMC8911927, “Synthesis and Biological Evaluation of 1-(2-(6-Methoxynaphthalen-2-yl)-6-methylnicotinoyl)-4-Substituted Semicarbazides/Thiosemicarbazides as Anti-Tumor Nur77 Modulators” (Molecules, 2022).

In assay [1] the test system is cleaved PARP. Nature of the assay: Western blot of cleaved PARP. The class given is cell-based, human. To be noted: HGC-27 cells, different times and concentrations, 24 h. The method, then: (§1) Equal amounts of the lysates were electrophoresed on 10% SDS-PAGE gel and transferred onto PVDF membranes. After blocked with 5% nonfat milk in TBST (50 mM Tris-HCl (pH 7.4), 150 mM NaCl and 0.1% Tween 20) for 1 h, the membranes were incubated with various primary antibodies overnight and secondary antibodies for 3 h, finally detected using an ECL system. The blots were captured with ChemiDoc XRS+System (Bio-Rad, Hercules, CA, USA).
Background: A western blot detects proteins with antibodies after separation by electrophoresis.

Assay [2] relates to HepG2 cells. The experiment in a line: MTT cytotoxicity, HepG2. The class given is cell-based. To be noted: read-out: Cancer Cells IC50, HepG2. The method, then:
(§2) All of the cell lines were obtained from the American Type Culture Collection (ATCC, Manassas, VA, USA) and grown in DMEM or RPMI culture medium containing 10% fetal bovine serum (v/v) in 5% CO2 at 37 °C. Confluent cells in good state were cultured in 96-well plates (5–10 × 10^4 cells/mL). After cells were attached to the plate, compounds with various concentrations were applied at 37 °C for 72 h. […] The supernatant was removed, and the cells were dissolved in 100 μL dimethyl sulfoxide and shaken for 5 min.

In assay [3] the test system is HGC-27 cells. Nature of the assay: Flow cytometry cell cycle assay. The class given is cell-based, human. Conditions: 8 h of treatment. Also on record: dose or concentration left out as unconfirmed. As for the experimental part: Flow cytometry analysis was applied for cell cycle detection. Firstly, HGC-27 cell was adjusted to 1 × 10^6/mL, inoculated into a six-well plate and placed in an incubator at 37 °C containing 5% CO2 saturated humidity overnight. After the cells were fully attached to the plate, […] 9u and 9h were administrated to the cells for 8 h. After cells were collected and fixed with 70% ethanol, DAPI was applied to stain the cells at the final concentration of 1 μg/mL; subsequently, on-board testing by flow cytometry (Cytoflex S (Beckman Coulter, Brea, CA, USA)) was conducted.
In general terms: In flow cytometry, cells or beads pass a laser one at a time.

For assay [4], the target named is T1, Nur77 (Homo sapiens, UniProt P22736).
T1 construct: endogenous in cells; host or cells: HGC-27
Nature of the assay: Nur77 localization by nuclear-cytosol fractionation and immunofluorescence. The class given is cell-based. To be noted: HGC-27 cells, 3 h, 10 µM for immunofluorescence. As for the experimental part:
Cells in the logarithmic phase of growth were seeded in 6-cm dishes; after, apposition cells were treated with compound 9h for 3 h. The medium was discarded and washed twice with pre-chilled PBS, then the cells were scraped off with a cytoscraper and collected into 1.5 mL centrifuge tubes and centrifuged at 1500 rpm for 3 min. Next, 80 μL of Buffer B (containing 100× protease inhibitor) were added for 20 min in an ice bath, followed by 20 μL of Buffer B containing 1% TritonX-100. The mixture was vortexed for 10 s, centrifuged at 10,000× g for 15 min at 4 °C, the supernatant collected as cytoplasmic proteins and the precipitate as the nuclear fraction. Then, 100 μL of Buffer C containing 0.4% TritonX-100 were added and centrifuged for 15 min at 4 °C, and 100 uL of Buffer C containing 0.4% TritonX-100 were added and vortexed for 30 min at 4 °C, centrifuged at 15,000× g for 15 min at 4 °C, and the supernatant was the nucleus protein.
The cells were inoculated into the culture dish with preplaced treated coverslips, and the coverslips were removed when the cells were close to growing into a monolayer. Then, they were washed twice with PBS and 4% paraformaldehyde was used to fix the cells for 30 min. The cells were permeabilized with 1‰ TritonX-100 for 10 min. […] One drop of blocker containing DAPI dye was added and the slice sealed and this was examined by fluorescence microscopy.

In assay [5] the test system is MCF-7 cells. Nature of the assay: MTT cytotoxicity, MCF-7. The class given is cell-based, human. To be noted: 72 h, mean values. As for the experimental part: (§3) All of the cell lines were obtained from the American Type Culture Collection (ATCC, Manassas, VA, USA) and grown in DMEM or RPMI culture medium containing 10% fetal bovine serum (v/v) in 5% CO2 at 37 °C.
(§4) Confluent cells in good state were cultured in 96-well plates (5–10 × 10^4 cells/mL). After cells were attached to the plate, compounds with various concentrations were applied at 37 °C for 72 h. Then, the cells were incubated with 10 μL of 5 mg/mL MTT reagent at 37 °C for 4 h. The supernatant was removed, and the cells were dissolved in 100 μL dimethyl sulfoxide and shaken for 5 min. Finally, the light absorption (OD) of the dissolved cells was measured at […].

Assay [6] concerns HGC-27 cells. Nature of the assay: Colony formation assay. The class given is cell-based, human. Conditions: treatment for two weeks, 5 μM and 10 μM, dose-dependent. As for the experimental part:
HGC-27 cells were cultured in a six-well plate (500 cells/well) and treated with 9u and 9h in 10% serum medium for two weeks, then fixed with methanol at room temperature and stained with 0.1% crystal violet, and images were scanned with a scanner.

Assay [7] concerns LO2 cells. Nature of the assay: MTT cytotoxicity, LO2 normal cells. The class given is cell-based. The method, then:
as §2

The subject of assay [8] is A875 cells. Nature of the assay: MTT cytotoxicity, A875. The class given is cell-based. Conditions: read-out: Cancer Cells IC50, A875. As for the experimental part:
as §2

The test system of assay [9] is HeLa cells. Nature of the assay: MTT cytotoxicity, HeLa. To be noted: 72 h, mean values. The class given is cell-based, human. As for the experimental part:
as §3, §4

The subject of assay [10] is H460 cells. The experiment in a line: MTT cytotoxicity, H460. The class given is cell-based. To be noted: read-out: Cancer Cells IC50, H460. The method, then: as §2
For assay [11], the system named is MDA-MB231 cells. Nature of the assay: MTT cytotoxicity, MDA-MB231. The class given is cell-based. Conditions: read-out: Cancer Cells IC50, MDA-MB231. The method, then:
as §2

The subject of assay [12] is MRC-5 cells. The experiment in a line: MTT cytotoxicity, MRC-5 normal cells. The class given is cell-based. As for the experimental part: as §2
Assay [13] deals with HGC-27 cells. Nature of the assay: MTT cytotoxicity, HGC-27. The class given is cell-based, human. Conditions: 72 h, mean values. The method, then:
as §3, §4

The test system of assay [14] is A549 cells. The experiment in a line: MTT cytotoxicity, A549. The class given is cell-based. To be noted: read-out: Cancer Cells IC50, A549. The method, then: as §2
In assay [15] the test system is Nur77. The experiment in a line: Western blot of Nur77 expression. The class given is cell-based, human. To be noted: HGC-27 cells, concentration gradient. The method, then: as §1

T1 sequence (P22736 whole entry): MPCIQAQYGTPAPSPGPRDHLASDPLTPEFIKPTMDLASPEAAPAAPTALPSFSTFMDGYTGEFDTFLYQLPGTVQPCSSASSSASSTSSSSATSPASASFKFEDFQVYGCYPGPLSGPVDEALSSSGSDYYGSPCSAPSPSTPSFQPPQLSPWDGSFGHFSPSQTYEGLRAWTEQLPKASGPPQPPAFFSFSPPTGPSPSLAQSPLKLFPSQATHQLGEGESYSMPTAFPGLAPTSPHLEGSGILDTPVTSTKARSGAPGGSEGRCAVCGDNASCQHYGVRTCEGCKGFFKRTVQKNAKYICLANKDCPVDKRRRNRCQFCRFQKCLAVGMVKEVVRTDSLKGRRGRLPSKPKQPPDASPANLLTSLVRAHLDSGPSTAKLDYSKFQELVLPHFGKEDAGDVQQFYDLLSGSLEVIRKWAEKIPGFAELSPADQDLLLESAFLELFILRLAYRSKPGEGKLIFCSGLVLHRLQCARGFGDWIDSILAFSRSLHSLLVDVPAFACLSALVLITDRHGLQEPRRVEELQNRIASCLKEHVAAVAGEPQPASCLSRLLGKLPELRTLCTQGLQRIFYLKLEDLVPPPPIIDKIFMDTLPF

For “4-(2-Chlorophenyl)-1-(2-(6-methoxynaphthalen-2-yl)-6-methylnicotinoyl)semicarbazide [Compound 9h]”, the PARP cleavage result in assay [1] is “induce the PARP cleavage in a dose-dependent and time-dependent manner”. Besides, the IC50 in assay [2] is 5.1 ± 0.01 µM; in assay [5] it was 3.3 ± 0.21 µM; in [7] it was > 50 µM; in [8], > 50 µM; in [9], 4.12 ± 0.08 µM; in [10], 9.2 ± 0.24 µM. For the same substance, the IC50 was 4.3 ± 0.33 µM in assay [11], > 50 µM in assay [12], 1400 ± 110 nM in [13] and 7.3 ± 0.21 µM in assay [14]. Moreover, the “Effect on cell cycle” value in [3] was “induced cell cycle blockage in G2-M phase”. Also, the Nur77 nuclear export entry in assay [4] is reported as “significantly induced Nur77 nuclear export”. Further, in [6], the “Colony formation of HGC-27 cells” value is “completely inhibited colony formation”. Further, the Nur77 expression result in assay [15] is “induced Nur77 expression”.
As to “4-(2-Chlorophenyl)-1-(2-(6-methoxynaphthalen-2-yl)-6-methylnicotinoyl)thiosemicarbazide [Compound 9u]”, the PARP cleavage entry in assay [1] is “induce the PARP cleavage in a dose-dependent and time-dependent manner”. The IC50 is 7.2 ± 0.11 µM in [2]; 6.44 ± 0.07 µM in [5]; 41 ± 0.7 µM in assay [7]; 15.7 ± 0.11 µM in [8]; 6.1 ± 0.5 µM in [9]; 14 ± 0.38 µM in assay [10]. Besides, the IC50 in [11] was determined as 21 ± 0.01 µM; in assay [12] it was 22.1 ± 0.11 µM; in assay [13] it was 4560 ± 90 nM; in assay [14] it was 11.2 ± 0.46 µM. The “Effect on cell cycle” value in assay [3] was “induced cell cycle blockage in G2-M phase”. For the same substance, the “Colony formation of HGC-27 cells” value in assay [6] is given as “completely inhibited colony formation”.
